Test results published in patent publication US11046716B2, “Beta-lactamase inhibitors” (priority 2015, dated 2021).

What was measured:
[1] = biological target: T1, AmpC (Enterobacter cloacae, UniProt P05364); assay: β-lactamase enzyme inhibition assay, p99 AmpC (nitrocefin substrate); assay type: biochemical
T1 construct: made in house; host or cells: E. coli BL21(DE3)
In short: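 Compounds are mixed with purified, untagged recombinant β-lactamase and held 15 min at 37 °C. Substrate is then added. Absorbance is followed immediately, and percent inhibition per concentration gives the IC50.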

[2] = tested on: E. coli expressing the Class A Extended Spectrum Beta-Lactamase (ESBL) CTX-M-15; assay: Broth microdilution MIC assay with ceftazidime, E. coli CTX-M-15; assay type: cell-based; details: Fixed CAZ (ceftazidime) 4 μg/mL; E. coli ESBL4 CTX-M-15
In short: (§1)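 In cation-adjusted Mueller Hinton broth, bacteria pre-grown 3-5 hours were exposed to test compound (2-fold, 16–0.125 μg/mL) plus a static 4 μg/ml β-lactam. A panel of control β-lactams was run alongside, and the compound MIC was judged by eye following 16-20 hours at 37° C.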

[3] = tested on: K. pneumoniae expressing the class A carbapenemase KPC-2 and the class B carbapenemase VIM-4; assay: Broth microdilution MIC assay with meropenem, K. pneumoniae KPC-2 and VIM-4; assay type: cell-based; details: Fixed Mero (meropenem) 4 μg/mL; K. p. A-1797 KPC-2 VIM-4
In short: as §1

[4] = biological target: T2, VIM-2 (Escherichia coli, UniProt Q5U7L7); assay: β-lactamase enzyme inhibition assay, VIM-2 (nitrocefin substrate); assay type: biochemical; details: Class B; nitrocefin substrate, 486 nm; read-out: VIM-2
T2 construct: made in house; host or cells: E. coli BL21(DE3)
In short: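 Metallo-β-lactamase VIM-2 activity was tracked spectrophotometrically at 486 nm with 100 μM nitrocefin over 10 min, following 15 min preincubation with compound at 37 °C; inhibition was calculated per concentration.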

[5] = tested on: K. pneumoniae expressing the Class A carbapenemase KPC-2; assay: Broth microdilution MIC assay with meropenem, K. pneumoniae KPC-2; assay type: cell-based; details: Fixed Mero (meropenem) 4 μg/mL; K. p. 156319 KPC-3
In short: as §1

[6] = tested on: K. pneumoniae producing the Class D carbapenemase OXA-48; assay: Broth microdilution MIC assay with meropenem, K. pneumoniae OXA-48; assay type: cell-based; details: Fixed Mero (meropenem) 4 μg/mL; K. p. 11978 OXA-48
In short: as §1

[7] = biological target: T3, KPC-2 (Klebsiella pneumoniae, UniProt Q9F663); assay: β-lactamase enzyme inhibition assay, KPC-2 (imipenem substrate); assay type: biochemical; details: Class A; imipenem substrate, 300 nm; read-out: KPC-2
T3 construct: made in house; host or cells: E. coli BL21(DE3)
T3 sequence (Q9F663 25-293, looked up): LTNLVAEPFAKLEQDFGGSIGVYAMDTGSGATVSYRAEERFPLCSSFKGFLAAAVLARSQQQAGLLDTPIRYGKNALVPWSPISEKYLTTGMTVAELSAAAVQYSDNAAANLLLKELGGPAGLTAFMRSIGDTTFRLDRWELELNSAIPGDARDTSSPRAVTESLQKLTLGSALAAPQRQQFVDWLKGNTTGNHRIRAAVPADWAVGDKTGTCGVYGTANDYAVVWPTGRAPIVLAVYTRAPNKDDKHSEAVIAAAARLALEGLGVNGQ
In short: (§2)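 Compounds are mixed with purified, untagged recombinant β-lactamase and held 15 min at 37 °C. Substrate is then added: nitrocefin (100 μM final) for OXA-1, imipenem for KPC-2, cefotaxime for SHV-5. Absorbance is followed immediately, and percent inhibition per concentration gives the IC50.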

[8] = biological target: T4, SHV-5 (Klebsiella pneumoniae, UniProt P0A3M1); assay: β-lactamase enzyme inhibition assay, SHV-5 (cefotaxime substrate); assay type: biochemical
T4 construct: made in house; host or cells: E. coli BL21(DE3)
T4 sequence (P0A3M1 22-286): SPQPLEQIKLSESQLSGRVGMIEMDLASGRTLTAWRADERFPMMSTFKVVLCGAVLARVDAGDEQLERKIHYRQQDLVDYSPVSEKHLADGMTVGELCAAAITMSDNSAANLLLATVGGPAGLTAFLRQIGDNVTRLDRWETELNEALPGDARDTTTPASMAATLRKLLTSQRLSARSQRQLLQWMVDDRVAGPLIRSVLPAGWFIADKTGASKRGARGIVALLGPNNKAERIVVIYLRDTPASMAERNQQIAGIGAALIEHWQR
In short: as §2

[9] = tested on: E. cloacae expressing the Class C P99; assay: Broth microdilution MIC assay with ceftazidime, E. cloacae P99; assay type: cell-based; details: Fixed CAZ (ceftazidime) 4 μg/mL; E. cl. 144200 p99 AmpC
In short: as §1

[10] = biological target: OXA-48 (UniProt Q6XEC0); assay: β-lactamase enzyme inhibition assay, Class D oxacillinase; assay type: biochemical; details: read-out: OXA-48
[11] = tested on: P. aeruginosa expressing the Class B carbapenemase VIM-2; assay: Broth microdilution MIC assay with meropenem, P. aeruginosa VIM-2; assay type: cell-based; details: Fixed Mero (meropenem) 4 μg/mL; P. aerug. 2775 VIM-2
In short: as §1

T1 sequence (P05364 21-381): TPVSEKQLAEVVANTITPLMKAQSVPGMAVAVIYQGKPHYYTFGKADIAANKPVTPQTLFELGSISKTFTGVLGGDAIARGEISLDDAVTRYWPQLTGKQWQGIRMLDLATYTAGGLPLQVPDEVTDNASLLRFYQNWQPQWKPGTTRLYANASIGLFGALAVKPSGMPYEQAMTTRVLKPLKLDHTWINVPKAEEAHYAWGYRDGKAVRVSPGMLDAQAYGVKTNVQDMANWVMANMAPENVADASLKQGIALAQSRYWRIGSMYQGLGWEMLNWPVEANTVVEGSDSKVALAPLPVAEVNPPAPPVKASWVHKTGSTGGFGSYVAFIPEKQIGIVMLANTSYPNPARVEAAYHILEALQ

Compound	IC50 [1]	MIC (μg/mL) of Exemplary Compounds in presence of fixed β-lactams: E. coli ESBL4 CTX-M-15 [2]	MIC (μg/mL) of Exemplary Compounds in presence of fixed β-lactams: K. p. A-1797 KPC-2 VIM-4 [3]	IC50 [4]	MIC (μg/mL) of Exemplary Compounds in presence of fixed β-lactams: K. p. 156319 KPC-3 [5]	MIC (μg/mL) of Exemplary Compounds in presence of fixed β-lactams: K. p. 11978 OXA-48 [6]	IC50 [7]	IC50 [8]	MIC (μg/mL) of Exemplary Compounds in presence of fixed β-lactams: E. cl. 144200 p99 AmpC [9]	IC50 [10]	MIC (μg/mL) of Exemplary Compounds in presence of fixed β-lactams: P. aerug. 2775 VIM-2 [11]
Nc1ccc(S(=O)(=O)NCc2cn(CC(=O)N[C@H]3Cc4cccc(C(=O)O)c4OB3O)nn2)cc1 [Example 70, (R)-3-(2-(4-(((4-aminophenyl)sulfonamido)methyl)-1H-1,2,3-triazol-1-yl)acetamido)-2-hydroxy-3,4-dihydro-2H-benzo[e][1,2]oxaborinine-8-carboxylic acid]	< 0.1 µM	C (C represents an MIC of <1 μg/mL)	B (B represents an MIC between 1 and 16 μg/mL inclusive)	1 to 10 µM	B (B represents an MIC between 1 and 16 μg/mL inclusive)	B (B represents an MIC between 1 and 16 μg/mL inclusive)	< 0.1 µM	< 0.1 µM	C (C represents an MIC of <1 μg/mL)	0.1 to 1 µM	B (B represents an MIC between 1 and 16 μg/mL inclusive)
NCCn1cnc(C(=O)N[C@H]2Cc3cccc(C(=O)O)c3OB2O)n1 [Example 71, (R)-3-(1-(2-aminoethyl)-1H-1,2,4-triazole-3-carboxamido)-2-hydroxy-3,4-dihydro-2H-benzo[e][1,2]oxaborinine-8-carboxylic acid]	< 0.1 µM	C (C represents an MIC of <1 μg/mL)	B (B represents an MIC between 1 and 16 μg/mL inclusive)	0.1 to 1 µM	C (C represents an MIC of <1 μg/mL)	A (A represents an MIC>16 μg/mL)	0.1 to 1 µM	0.1 to 1 µM	C (C represents an MIC of <1 μg/mL)	10 to 100 µM	C (C represents an MIC of <1 μg/mL)
NCCn1cnc(C(=O)N[C@H]2Cc3cccc(C(=O)O)c3OB2O)c1 [Example 72, (R)-3-(1-(2-aminoethyl)-1H-imidazole-4-carboxamido)-2-hydroxy-3,4-dihydro-2H-benzo[e][1,2]oxaborinine-8-carboxylic acid]	< 0.1 µM	C (C represents an MIC of <1 μg/mL)	B (B represents an MIC between 1 and 16 μg/mL inclusive)	0.1 to 1 µM	C (C represents an MIC of <1 μg/mL)	B (B represents an MIC between 1 and 16 μg/mL inclusive)	< 0.1 µM	< 0.1 µM	C (C represents an MIC of <1 μg/mL)	0.1 to 1 µM	B (B represents an MIC between 1 and 16 μg/mL inclusive)
NCCn1cncc1C(=O)N[C@H]1Cc2cccc(C(=O)O)c2OB1O [Example 73, (R)-3-(1-(2-aminoethyl)-1H-imidazole-5-carboxamido)-2-hydroxy-3,4-dihydro-2H-benzo[e][1,2]oxaborinine-8-carboxylic acid]	< 0.1 µM	C (C represents an MIC of <1 μg/mL)	B (B represents an MIC between 1 and 16 μg/mL inclusive)	0.1 to 1 µM	B (B represents an MIC between 1 and 16 μg/mL inclusive)	B (B represents an MIC between 1 and 16 μg/mL inclusive)	< 0.1 µM	< 0.1 µM	C (C represents an MIC of <1 μg/mL)	0.1 to 1 µM	C (C represents an MIC of <1 μg/mL)
Nc1ccc(-c2cn(CC(=O)N[C@H]3Cc4cccc(C(=O)O)c4OB3O)nn2)cn1 [Example 74, (R)-3-(2-(4-(6-aminopyridin-3-yl)-1H-1,2,3-triazol-1-yl)acetamido)-2-hydroxy-3,4-dihydro-2H-benzo[e][1,2]oxaborinine-8-carboxylic acid]	< 0.1 µM	C (C represents an MIC of <1 μg/mL)	A (A represents an MIC>16 μg/mL)	1 to 10 µM	B (B represents an MIC between 1 and 16 μg/mL inclusive)	B (B represents an MIC between 1 and 16 μg/mL inclusive)	< 0.1 µM	< 0.1 µM	C (C represents an MIC of <1 μg/mL)	0.1 to 1 µM	B (B represents an MIC between 1 and 16 μg/mL inclusive)
NCc1ccc(-c2cn(CC(=O)N[C@H]3Cc4cccc(C(=O)O)c4OB3O)nn2)cn1 [Example 75, (R)-3-(2-(4-(6-(aminomethyl)pyridin-3-yl)-1H-1,2,3-triazol-1-yl)acetamido)-2-hydroxy-3,4-dihydro-2H-benzo[e][1,2]oxaborinine-8-carboxylic acid]	< 0.1 µM	C (C represents an MIC of <1 μg/mL)	B (B represents an MIC between 1 and 16 μg/mL inclusive)	0.1 to 1 µM	C (C represents an MIC of <1 μg/mL)	B (B represents an MIC between 1 and 16 μg/mL inclusive)	0.1 to 1 µM	< 0.1 µM	C (C represents an MIC of <1 μg/mL)	0.1 to 1 µM	B (B represents an MIC between 1 and 16 μg/mL inclusive)
NCC(=O)NCc1cn(CC(=O)N[C@H]2Cc3cccc(C(=O)O)c3OB2O)nn1 [Example 76, (R)-3-(2-(4-((2-aminoacetamido)methyl)-1H-1,2,3-triazol-1-yl)acetamido)-2-hydroxy-3,4-dihydro-2H-benzo[e][1,2]oxaborinine-8-carboxylic acid]	< 0.1 µM	C (C represents an MIC of <1 μg/mL)	B (B represents an MIC between 1 and 16 μg/mL inclusive)	< 0.1 µM	C (C represents an MIC of <1 μg/mL)	B (B represents an MIC between 1 and 16 μg/mL inclusive)	0.1 to 1 µM	< 0.1 µM	C (C represents an MIC of <1 μg/mL)	0.1 to 1 µM	C (C represents an MIC of <1 μg/mL)
